The target in assay [1] is Proto-oncogene tyrosine-protein kinase Src (Homo sapiens, UniProt P12931). Put plainly: Selectivity interaction (KinomeScan (DiscoverX)) EUB0000595a SRC. The settings on record: at 10 µM.
Assay [2] deals with Transient receptor potential cation channel subfamily M member 6 (Homo sapiens) (UniProt Q9BX84). Put plainly: Selectivity interaction (KinomeScan (DiscoverX)) EUB0001619a TRPM6. The settings on record: at 1 µM.
Assay [3] addresses Tyrosine-protein kinase Fgr (Homo sapiens) (UniProt P09769). Description: Selectivity interaction (KinomeScan (DiscoverX)) EUB0001619a FGR. Conditions: at 1 µM.
Assay [4] deals with Serine/threonine-protein kinase 38 (Homo sapiens) (UniProt Q15208). Description: Selectivity interaction (ActivX KiNativ screen (ex vivo kinase selectivity in human PBMCs)) EUB0001619a STK38. It is filed as cell-based. Conditions: PBMC, at 1 µM.
Chain of Serine/threonine-protein kinase 38 (Homo sapiens) (Q15208 2-465 limits assumed): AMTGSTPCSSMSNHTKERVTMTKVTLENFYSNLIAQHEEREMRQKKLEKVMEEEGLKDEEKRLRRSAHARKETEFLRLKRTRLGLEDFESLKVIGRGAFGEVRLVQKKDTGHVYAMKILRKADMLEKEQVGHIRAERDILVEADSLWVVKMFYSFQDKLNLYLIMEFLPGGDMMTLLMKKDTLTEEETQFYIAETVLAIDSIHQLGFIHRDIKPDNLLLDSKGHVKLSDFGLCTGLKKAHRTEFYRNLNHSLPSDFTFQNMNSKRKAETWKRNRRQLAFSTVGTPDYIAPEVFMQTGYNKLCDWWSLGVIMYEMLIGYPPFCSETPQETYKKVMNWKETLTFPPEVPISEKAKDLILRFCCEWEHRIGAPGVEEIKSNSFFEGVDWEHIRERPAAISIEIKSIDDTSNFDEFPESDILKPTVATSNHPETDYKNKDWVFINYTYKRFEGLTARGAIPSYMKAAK
Assay [5] concerns the target Rho-associated protein kinase 1 (Homo sapiens) (UniProt Q13464). Put plainly: Selectivity interaction (KinomeScan (DiscoverX)) EUB0000666a ROCK1. Conditions: at 10 µM.
Assay [6] addresses cAMP-dependent protein kinase catalytic subunit beta (Homo sapiens) (UniProt P22694). Description: Selectivity interaction (KinomeScan (DiscoverX)) EUB0000666a PRKACB. Conditions: at 10 µM.
Assay [7] concerns the target Cyclin-dependent kinase 9 (Homo sapiens, UniProt P50750). The settings on record: at 10 µM.
The target in assay [8] is Tyrosine-protein kinase CSK (Homo sapiens) (UniProt P41240). Put plainly: Selectivity interaction (ActivX KiNativ screen (kinase selectivity in THP-1 cell lysates)) EUB0000639a CSK. Type of assay: subcellular. The settings on record: lysate, at 0.2 µM.
Chain of Tyrosine-protein kinase CSK (Homo sapiens) (P41240 2-450 limits assumed): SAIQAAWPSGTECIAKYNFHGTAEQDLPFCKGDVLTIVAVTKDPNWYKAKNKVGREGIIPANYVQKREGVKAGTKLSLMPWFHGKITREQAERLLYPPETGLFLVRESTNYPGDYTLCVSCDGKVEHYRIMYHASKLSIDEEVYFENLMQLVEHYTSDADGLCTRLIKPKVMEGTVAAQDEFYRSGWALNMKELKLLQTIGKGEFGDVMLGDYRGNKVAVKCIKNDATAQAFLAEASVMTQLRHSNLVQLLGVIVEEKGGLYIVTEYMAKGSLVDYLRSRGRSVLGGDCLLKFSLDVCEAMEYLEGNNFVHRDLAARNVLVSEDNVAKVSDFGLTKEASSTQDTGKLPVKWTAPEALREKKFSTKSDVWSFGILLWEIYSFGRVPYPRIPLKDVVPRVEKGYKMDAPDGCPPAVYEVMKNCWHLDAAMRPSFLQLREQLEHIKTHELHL
The target of assay [9] is Mitogen-activated protein kinase 9 (Homo sapiens, UniProt P45984). Description: Selectivity interaction (Kinase panel (DSF assay)) EUB0001559a MAPK9. A general note: In DSF a fluorescence change marks the thermal transition of the protein.
The target in assay [10] is T1, Serine/threonine-protein kinase Chk1 (Homo sapiens) (UniProt O14757).
T1 sequence (whole entry): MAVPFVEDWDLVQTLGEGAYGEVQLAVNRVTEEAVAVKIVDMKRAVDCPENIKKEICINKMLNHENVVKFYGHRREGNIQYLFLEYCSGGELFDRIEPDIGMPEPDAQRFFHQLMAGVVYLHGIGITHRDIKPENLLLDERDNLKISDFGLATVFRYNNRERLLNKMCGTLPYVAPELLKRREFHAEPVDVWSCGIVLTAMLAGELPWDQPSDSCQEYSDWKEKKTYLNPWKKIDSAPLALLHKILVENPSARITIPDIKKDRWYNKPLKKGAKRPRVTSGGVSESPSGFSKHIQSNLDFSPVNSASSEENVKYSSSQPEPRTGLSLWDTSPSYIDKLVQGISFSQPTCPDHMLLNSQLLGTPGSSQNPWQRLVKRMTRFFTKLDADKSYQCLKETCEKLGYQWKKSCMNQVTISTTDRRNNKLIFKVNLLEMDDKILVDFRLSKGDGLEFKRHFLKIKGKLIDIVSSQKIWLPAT
Description: Selectivity interaction (ProQinase) EUB0000171b CHEK1.

Assay [11] addresses NT-3 growth factor receptor (Homo sapiens, UniProt Q16288). Put plainly: Selectivity interaction (Ambit KINOMEscan and KiNATiv profiling in Jurkat cells) EUB0000090b NTRK3. Type of assay: cell-based. The settings on record: at 1 µM.
Assay [12] addresses Serine/threonine-protein kinase VRK2 (Homo sapiens) (UniProt Q86Y07). Put plainly: Selectivity interaction (KinomeScan (DiscoverX)) EUB0001049a VRK2. The settings on record: at 1 µM.
Assay [13] addresses T2, Bromodomain and PHD finger-containing protein 3 (Homo sapiens) (UniProt Q9ULD4).
T2 sequence (whole entry): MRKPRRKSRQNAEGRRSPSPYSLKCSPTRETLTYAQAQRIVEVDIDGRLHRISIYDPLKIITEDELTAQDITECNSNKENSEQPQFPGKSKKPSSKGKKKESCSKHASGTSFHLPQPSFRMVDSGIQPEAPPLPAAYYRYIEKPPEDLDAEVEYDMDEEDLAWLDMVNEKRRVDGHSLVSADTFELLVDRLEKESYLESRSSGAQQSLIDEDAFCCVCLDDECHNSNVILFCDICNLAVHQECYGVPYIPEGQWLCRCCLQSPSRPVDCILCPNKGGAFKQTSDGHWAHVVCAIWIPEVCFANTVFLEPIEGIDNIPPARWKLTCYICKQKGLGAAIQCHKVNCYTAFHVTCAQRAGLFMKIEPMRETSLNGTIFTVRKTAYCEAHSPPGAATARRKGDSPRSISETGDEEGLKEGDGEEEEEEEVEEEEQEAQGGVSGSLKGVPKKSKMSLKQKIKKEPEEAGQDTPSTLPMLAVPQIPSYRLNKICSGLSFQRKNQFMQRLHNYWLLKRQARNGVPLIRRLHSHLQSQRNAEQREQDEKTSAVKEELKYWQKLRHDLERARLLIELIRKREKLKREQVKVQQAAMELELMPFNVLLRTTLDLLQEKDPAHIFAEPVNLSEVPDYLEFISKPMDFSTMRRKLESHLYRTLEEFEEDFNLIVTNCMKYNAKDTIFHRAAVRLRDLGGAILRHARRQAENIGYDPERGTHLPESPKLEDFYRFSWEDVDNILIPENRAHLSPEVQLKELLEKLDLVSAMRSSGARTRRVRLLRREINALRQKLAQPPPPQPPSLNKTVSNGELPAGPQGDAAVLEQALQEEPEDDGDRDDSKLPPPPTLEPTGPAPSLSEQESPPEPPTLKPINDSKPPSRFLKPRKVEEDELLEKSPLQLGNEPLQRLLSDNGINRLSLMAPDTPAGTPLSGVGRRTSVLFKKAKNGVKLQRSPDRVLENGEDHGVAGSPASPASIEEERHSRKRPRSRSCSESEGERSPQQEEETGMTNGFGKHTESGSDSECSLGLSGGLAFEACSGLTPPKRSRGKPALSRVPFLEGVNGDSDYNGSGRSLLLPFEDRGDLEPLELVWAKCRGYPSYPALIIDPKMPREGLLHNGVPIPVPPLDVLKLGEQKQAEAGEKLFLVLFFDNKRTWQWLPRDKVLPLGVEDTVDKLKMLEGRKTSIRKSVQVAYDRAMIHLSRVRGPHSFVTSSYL
Put plainly: Selectivity interaction (Bromodomain panel (DSF asssay)) EUB0000270b BRPF3.

Assay [14] deals with MAP/microtubule affinity-regulating kinase 3 (Homo sapiens) (UniProt P27448). Description: Selectivity interaction (KinomeScan (DiscoverX)) EUB0000092b MARK3. Conditions: at 10 µM.
Assay [15] concerns the target Bromodomain and WD repeat-containing protein 1 (Homo sapiens) (UniProt Q9NSI6). Put plainly: Selectivity interaction (Human bromodomain panel (DSF assay)) EUB0000233b BRWD1.
The target in assay [16] is Protein arginine N-methyltransferase 6 (Homo sapiens, UniProt Q96LA8). Put plainly: Selectivity interaction (Methyltransferase screen (radiometric assays, panel of 8 PRMTs, 21 protein lysine methyltransferases, 3 DNA methyltransferases, and one RNA methyltransferase)) EUB0000271b PRMT6.
Chain of Protein arginine N-methyltransferase 6 (Q96LA8 whole entry, looked up): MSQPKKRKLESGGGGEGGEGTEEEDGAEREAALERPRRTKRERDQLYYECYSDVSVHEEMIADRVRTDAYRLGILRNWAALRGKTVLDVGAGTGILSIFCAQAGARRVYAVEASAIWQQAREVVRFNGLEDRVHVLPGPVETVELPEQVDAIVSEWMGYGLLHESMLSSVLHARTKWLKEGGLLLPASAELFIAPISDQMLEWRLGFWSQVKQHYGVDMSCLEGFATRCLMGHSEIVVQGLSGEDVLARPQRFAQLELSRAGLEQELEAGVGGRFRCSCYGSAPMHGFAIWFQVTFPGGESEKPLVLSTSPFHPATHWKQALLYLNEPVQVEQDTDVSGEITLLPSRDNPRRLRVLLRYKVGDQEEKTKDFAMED
In assay [17] the target is Glycogen synthase kinase-3 alpha (Homo sapiens, UniProt P49840). Put plainly: Selectivity interaction (Millipore kinase profiler) EUB0000124b GSK3A. The settings on record: at 10 µM.
Chain of Glycogen synthase kinase-3 alpha (P49840 2-483 limits assumed): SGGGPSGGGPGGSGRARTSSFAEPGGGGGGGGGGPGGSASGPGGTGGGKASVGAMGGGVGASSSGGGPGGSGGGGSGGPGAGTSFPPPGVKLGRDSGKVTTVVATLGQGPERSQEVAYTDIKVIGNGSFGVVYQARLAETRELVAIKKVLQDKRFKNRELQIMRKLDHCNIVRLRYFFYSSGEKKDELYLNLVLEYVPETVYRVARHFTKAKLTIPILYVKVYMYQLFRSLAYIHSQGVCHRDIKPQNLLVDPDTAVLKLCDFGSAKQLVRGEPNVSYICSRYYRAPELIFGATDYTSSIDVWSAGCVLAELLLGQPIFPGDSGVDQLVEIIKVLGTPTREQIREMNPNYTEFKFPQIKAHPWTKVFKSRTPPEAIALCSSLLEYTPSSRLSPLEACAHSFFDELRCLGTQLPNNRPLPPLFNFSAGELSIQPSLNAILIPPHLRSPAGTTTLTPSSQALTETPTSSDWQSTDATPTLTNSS

Molecules are shown by their SMILES.

The values that follow come from ChEMBL document CHEMBL5465560, “Selectivity Literature for EUbOPEN Chemogenomic Library” (2024).

Chain of Tyrosine-protein kinase Fgr (Homo sapiens) (P09769 2-529 limits assumed): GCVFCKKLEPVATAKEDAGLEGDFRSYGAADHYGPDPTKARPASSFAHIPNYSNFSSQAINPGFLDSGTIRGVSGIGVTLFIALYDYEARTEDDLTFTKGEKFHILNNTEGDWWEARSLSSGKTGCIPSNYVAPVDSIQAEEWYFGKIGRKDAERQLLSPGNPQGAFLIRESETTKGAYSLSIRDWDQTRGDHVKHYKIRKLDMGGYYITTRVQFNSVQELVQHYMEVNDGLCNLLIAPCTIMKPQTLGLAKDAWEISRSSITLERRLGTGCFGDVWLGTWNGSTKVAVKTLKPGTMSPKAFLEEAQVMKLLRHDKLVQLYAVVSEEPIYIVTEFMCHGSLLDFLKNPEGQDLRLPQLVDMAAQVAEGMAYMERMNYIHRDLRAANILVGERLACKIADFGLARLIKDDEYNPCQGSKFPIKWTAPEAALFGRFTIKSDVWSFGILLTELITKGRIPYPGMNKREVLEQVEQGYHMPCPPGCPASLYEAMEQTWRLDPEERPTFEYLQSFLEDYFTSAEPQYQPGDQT
Chain of Transient receptor potential cation channel subfamily M member 6 (Homo sapiens) (Q9BX84 whole entry): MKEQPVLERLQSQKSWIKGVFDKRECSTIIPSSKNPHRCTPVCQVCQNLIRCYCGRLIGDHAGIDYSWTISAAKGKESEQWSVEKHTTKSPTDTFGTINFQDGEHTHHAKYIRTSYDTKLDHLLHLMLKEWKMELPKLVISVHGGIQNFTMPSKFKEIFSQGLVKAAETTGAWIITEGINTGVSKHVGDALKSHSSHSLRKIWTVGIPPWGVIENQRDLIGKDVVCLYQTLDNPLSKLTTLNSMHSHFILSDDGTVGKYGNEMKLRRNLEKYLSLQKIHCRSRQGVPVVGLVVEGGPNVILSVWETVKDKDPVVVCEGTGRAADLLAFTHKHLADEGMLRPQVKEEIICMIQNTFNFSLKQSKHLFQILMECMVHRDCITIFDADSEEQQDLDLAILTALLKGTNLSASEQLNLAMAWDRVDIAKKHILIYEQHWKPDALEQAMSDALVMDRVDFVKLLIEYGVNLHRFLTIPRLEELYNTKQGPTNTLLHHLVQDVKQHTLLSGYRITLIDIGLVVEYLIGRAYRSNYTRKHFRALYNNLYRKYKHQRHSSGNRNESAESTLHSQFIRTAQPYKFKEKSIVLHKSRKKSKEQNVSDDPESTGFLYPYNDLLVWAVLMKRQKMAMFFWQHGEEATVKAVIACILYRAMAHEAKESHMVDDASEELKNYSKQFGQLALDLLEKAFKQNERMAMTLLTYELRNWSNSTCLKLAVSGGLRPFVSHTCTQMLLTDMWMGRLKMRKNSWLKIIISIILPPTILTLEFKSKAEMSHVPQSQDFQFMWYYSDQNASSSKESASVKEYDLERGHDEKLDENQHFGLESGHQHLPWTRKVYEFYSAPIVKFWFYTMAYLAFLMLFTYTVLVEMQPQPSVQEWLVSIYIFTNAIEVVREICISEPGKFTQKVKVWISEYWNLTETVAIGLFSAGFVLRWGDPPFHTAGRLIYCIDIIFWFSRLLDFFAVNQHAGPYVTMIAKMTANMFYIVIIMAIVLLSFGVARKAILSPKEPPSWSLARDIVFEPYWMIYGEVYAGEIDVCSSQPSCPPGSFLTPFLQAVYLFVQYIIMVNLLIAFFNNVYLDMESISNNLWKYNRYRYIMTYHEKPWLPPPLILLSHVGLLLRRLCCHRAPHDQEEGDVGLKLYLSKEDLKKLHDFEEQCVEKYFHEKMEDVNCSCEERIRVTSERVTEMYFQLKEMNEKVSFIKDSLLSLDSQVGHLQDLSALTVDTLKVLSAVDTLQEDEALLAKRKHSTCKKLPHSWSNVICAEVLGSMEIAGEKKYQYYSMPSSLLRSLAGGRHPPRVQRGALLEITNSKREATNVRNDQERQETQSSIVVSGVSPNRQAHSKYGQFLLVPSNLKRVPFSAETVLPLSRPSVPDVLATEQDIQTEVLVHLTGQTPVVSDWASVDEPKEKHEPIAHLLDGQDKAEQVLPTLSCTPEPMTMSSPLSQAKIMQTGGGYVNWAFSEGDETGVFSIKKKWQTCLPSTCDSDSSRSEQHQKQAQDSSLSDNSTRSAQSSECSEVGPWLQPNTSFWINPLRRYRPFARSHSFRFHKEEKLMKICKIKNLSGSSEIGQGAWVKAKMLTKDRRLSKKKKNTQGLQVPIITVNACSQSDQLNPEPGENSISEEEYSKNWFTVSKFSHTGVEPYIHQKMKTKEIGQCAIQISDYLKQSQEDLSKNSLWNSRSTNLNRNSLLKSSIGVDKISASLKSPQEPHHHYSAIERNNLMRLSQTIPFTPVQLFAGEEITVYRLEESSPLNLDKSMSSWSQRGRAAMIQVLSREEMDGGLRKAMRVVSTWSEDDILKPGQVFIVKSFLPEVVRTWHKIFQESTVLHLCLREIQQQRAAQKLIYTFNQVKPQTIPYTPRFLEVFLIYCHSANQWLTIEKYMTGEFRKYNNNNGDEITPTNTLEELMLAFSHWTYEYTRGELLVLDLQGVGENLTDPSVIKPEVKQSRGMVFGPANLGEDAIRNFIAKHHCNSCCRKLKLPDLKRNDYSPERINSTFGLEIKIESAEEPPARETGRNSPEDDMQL
Chain of Proto-oncogene tyrosine-protein kinase Src (P12931 2-536 limits assumed): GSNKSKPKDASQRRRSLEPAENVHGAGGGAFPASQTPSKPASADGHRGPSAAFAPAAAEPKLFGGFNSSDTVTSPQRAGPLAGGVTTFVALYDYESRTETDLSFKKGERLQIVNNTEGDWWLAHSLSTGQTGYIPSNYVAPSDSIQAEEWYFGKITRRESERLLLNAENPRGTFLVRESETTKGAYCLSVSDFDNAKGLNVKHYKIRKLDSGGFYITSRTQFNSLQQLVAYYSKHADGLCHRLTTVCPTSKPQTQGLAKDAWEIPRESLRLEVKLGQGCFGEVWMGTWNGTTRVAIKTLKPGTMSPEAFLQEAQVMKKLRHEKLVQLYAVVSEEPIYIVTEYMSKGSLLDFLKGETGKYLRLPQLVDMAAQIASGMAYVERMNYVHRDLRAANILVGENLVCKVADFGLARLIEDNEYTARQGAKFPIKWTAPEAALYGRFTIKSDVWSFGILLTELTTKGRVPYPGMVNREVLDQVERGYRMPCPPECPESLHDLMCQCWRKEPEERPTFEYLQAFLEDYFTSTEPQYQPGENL

As to `COCC(=O)NC/C=C/c1ccc2ncnc(Nc3ccc(Oc4ccc(C)nc4)c(C)c3)c2c1` [CP-724714], in [1], the % of control amounted to 97%.

With `N#Cc1cccc(-c2c[nH]c3ncnc(N4CCOCC4)c23)c1`, the % of control in assay [2] and in [3] was 100% in each case. In addition, the % of inhibition in [4] came out at 4%.

Take `O=C(NOC[C@H](O)CO)c1ccc(F)c(F)c1Nc1ccc(I)cc1F`: the % of control was determined as 100% in assay [5] and 98% in assay [6].

With `Cc1cc([C@@H](C)Nc2ccccc2C(=O)O)c2nc(N3CCOCC3)cc(=O)n2c1` [AZD-6482], the % of control in assay [7] came to 100%.

Turning to `CC[C@@H]1[C@H](F)C(=O)N[C@@H]1COc1nccc2cc(C(N)=O)c(OC)cc12` [ZIMLOVISERTIB], the % of inhibition in [8] was -6.8%.

The compound `CN(C(=O)c1cnn2cccnc12)c1cc2c(cc1N1CCOCC1)C(=O)N(C[C@@H](F)C(C)(C)O)C2` registered a dTM in assay [9] of 0.5 K.

Turning to `C=CC(=O)Nc1cccc(C(=O)Nc2ccc(Nc3cc(-c4[nH]c(SC)nc4C)ccn3)cc2)c1`, the % of control in assay [10] (at 1 µM) is 94%; in assay [10] (at 5 µM), 100%.

On to `CN(C)C/C=C/C(=O)Nc1ccc(C(=O)N2CCCC(Nc3ncc(Cl)c(-c4c[nH]c5ccccc45)n3)C2)cc1` (centres undefined), for which the % of control in assay [11] was found to be 81%.

In turn, `COc1cc(Nc2nc(C)cc(-c3cnn4nc(OC)ccc34)n2)cc(C(F)(F)F)c1` showed a % of control in [12] of 100%.

Compound `Cc1cc(CN)cc(C)c1-c1ncn(C)c1-c1cncn1C` came in with a dTM in assay [13] of -2.18 K.

Consider `CCC(=O)N1CCN(c2ccc(-n3c(=O)ccc4cnc5ccc(-c6cnc7ccccc7c6)cc5c43)cc2C(F)(F)F)CC1`, for which the % of control in assay [14] was 100%.

Turning to `CN(C)CCCOc1ccc(-c2cc(NCCCn3cccn3)nc(S(C)(=O)=O)n2)cc1`, in assay [15], the dTM was under 2 K.

For the compound `Cc1cc(C)cc([C@@H]2c3cc(C)ccc3NC(=O)CN2C(=O)c2ccc(Br)s2)c1`, the % of activity in assay [16] (at 1 µM) worked out at 16.7%; in assay [16] (at 10 µM), 7.33%.

In [17], `CC(=O)Nc1cccc(-n2c(=O)n(C3CC3)c(=O)c3c(Nc4ccc(I)cc4F)n(C)c(=O)c(C)c32)c1` had a % of control of 99%.
